The values that follow come from PMC11879040, “Advancing systemic toxicity risk assessment: Evaluation of a NAM-based toolbox approach” (Toxicological Sciences, 2024).

Like-named read-outs stand apart in the source and are kept apart here. A value given as a limit tells only on which side of the number the result lay.

For series [1] the following is noted: PBK level L2; taken or scaled from references (median where several); ref [6],[7],[10],[19]; cited from earlier work.
In series [2] the target is T1, Constitutive androstane receptor CAR, NR1I3 (h) (Homo sapiens, UniProt Q14994).
T1 sequence (Q14994 1-352): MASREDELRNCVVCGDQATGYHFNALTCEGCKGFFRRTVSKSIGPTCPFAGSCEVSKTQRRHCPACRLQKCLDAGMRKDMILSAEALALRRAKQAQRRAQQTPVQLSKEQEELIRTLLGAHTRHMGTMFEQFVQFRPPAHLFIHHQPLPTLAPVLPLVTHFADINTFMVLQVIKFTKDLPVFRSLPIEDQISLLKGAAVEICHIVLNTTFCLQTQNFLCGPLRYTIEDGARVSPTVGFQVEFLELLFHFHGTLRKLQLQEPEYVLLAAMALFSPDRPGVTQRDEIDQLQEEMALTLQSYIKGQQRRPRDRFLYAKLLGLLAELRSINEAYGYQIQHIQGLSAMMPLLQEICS
It counts as biochemical.

Series [3] concerns the target Glucocorticoid receptor, NR3C1 (h) (Homo sapiens, UniProt P04150). Description: IPP NR3C1 binding (agonist radioligand). The following applies: IPP screening at 10 uM; control dexamethasone.
Series [4] has as its system CYP2C19. The following applies: PBK level L3, Intrinsic Liver Clearance, ref [12], cited from earlier work.
The conditions of series [5]: at the given pH, single value or median, cited from earlier work.
Series [6] has as its system human. Particulars: human studies; ref [15-18]; cited from earlier work.
Series [7] concerns the target Androgen receptor, AR (h) (Homo sapiens, UniProt P10275). The following applies: IPP screening at 10 uM; control testosterone.
In series [8] the test system is CYP2B6. Particulars: PBK level L3, Intrinsic Liver Clearance, ref [12], cited from earlier work.
For series [9] the following is noted: ref [15-18]; cited from earlier work.
In series [10] the target is T2, Retinoic Acid Receptor gamma, RARG (h) (Homo sapiens, UniProt P13631).
T2 construct: purchased Eurofins Cerep (SafetyScreen44-based IPP panel)
T2 sequence (P13631 whole entry): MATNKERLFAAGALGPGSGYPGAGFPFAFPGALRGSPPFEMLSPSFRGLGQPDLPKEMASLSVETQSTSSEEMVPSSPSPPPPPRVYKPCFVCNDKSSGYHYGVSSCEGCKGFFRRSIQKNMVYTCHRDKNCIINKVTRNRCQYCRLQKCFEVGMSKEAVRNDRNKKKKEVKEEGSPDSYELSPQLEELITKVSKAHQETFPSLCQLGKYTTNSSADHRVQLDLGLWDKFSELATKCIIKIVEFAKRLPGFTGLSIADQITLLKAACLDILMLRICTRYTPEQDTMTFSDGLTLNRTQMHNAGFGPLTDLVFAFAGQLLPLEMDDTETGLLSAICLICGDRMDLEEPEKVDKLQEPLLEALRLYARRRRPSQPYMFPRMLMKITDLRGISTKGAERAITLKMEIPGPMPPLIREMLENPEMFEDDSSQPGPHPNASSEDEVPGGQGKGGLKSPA
Briefly: IPP RARG binding (assay unavailable by end of study). Particulars: 10 uM; ligand/control 9-cis-Retinoic acid; ** assay was unavailable by the end of the study.

Series [11] in a line: hepatic intrinsic clearance (Clint). Particulars: PBK input.
For series [12] the following is noted: PBK input, levels L2/L3; ref [4]; cited from earlier work.
The nature of series [13]: PBK model plasma Cmax estimate (Gastroplus 9.8; levels L1, L2, L3). Details: species or system human. The following applies: therapeutic uses.
Series [14] is described as follows: intestinal absorption (PBK input). In kind it is in vitro ADME. Particulars: levels L2/L3, converted from [38].
The target of series [15] is T3, Estrogen receptor beta, ESR2 (h) (Homo sapiens, UniProt Q92731).
T3 construct: purchased Eurofins Cerep (SafetyScreen44-based IPP panel)
T3 sequence (Q92731 whole entry): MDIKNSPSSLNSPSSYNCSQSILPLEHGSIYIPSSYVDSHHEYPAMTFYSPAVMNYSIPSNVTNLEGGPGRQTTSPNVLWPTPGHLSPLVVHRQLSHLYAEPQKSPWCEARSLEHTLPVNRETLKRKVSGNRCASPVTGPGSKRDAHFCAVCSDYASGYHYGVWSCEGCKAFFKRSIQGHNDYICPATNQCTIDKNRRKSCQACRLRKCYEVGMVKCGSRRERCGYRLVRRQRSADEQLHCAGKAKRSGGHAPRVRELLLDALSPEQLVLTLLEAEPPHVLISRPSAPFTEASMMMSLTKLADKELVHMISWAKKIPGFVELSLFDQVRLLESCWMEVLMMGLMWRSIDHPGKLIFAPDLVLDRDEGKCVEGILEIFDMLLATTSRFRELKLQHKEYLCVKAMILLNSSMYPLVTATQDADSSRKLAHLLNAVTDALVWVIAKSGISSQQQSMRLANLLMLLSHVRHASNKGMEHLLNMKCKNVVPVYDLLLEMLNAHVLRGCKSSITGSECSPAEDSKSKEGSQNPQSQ
Description: IPP ESR2 coactivator recruitment (agonist). Particulars: 100 uM, estriol, * denotes assay interference (2-Amino-6-chloro-4-nitrophenol, HC Red 3). In kind it is biochemical.

Series [16] concerns the target T3, Estrogen receptor beta, ESR2 (h). Description: IPP ESR2 coactivator recruitment (antagonist). In kind it is biochemical. Particulars: 100 uM, estriol, * denotes assay interference (2-Amino-6-chloro-4-nitrophenol, HC Red 3).
Series [17] has as its target T4, Peroxisome proliferator-activated receptor gamma, PPARG (h) (Homo sapiens, UniProt P37231).
T4 sequence (P37231 1-505): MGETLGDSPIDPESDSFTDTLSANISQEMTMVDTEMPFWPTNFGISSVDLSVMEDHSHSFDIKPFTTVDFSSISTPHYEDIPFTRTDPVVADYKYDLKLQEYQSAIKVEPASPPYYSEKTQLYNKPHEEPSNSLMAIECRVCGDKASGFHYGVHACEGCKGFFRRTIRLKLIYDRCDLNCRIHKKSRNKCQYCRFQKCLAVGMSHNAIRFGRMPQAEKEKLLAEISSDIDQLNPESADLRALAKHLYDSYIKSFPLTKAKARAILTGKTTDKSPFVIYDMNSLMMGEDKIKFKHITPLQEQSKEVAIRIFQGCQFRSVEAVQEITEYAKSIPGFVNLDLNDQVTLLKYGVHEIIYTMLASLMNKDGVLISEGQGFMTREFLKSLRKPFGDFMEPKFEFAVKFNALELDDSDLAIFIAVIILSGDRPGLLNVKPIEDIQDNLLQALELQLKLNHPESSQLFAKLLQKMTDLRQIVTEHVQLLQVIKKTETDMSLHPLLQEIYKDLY
Description: IPP PPARG coactivator recruitment (agonist). In kind it is biochemical. Particulars: 10 uM, rosiglitazone for control.

Series [18] addresses T5, Vitamin D3 receptor, VDR (h) (Homo sapiens, UniProt P11473). It counts as biochemical. The following applies: 10 uM; agonist; calcitriol for control.
In series [19] the target is T5, Vitamin D3 receptor, VDR (h). It counts as biochemical. Particulars: 10 uM; antagonist; ligand calcitriol.

Chain of Glucocorticoid receptor, NR3C1 (h) (P04150 whole entry): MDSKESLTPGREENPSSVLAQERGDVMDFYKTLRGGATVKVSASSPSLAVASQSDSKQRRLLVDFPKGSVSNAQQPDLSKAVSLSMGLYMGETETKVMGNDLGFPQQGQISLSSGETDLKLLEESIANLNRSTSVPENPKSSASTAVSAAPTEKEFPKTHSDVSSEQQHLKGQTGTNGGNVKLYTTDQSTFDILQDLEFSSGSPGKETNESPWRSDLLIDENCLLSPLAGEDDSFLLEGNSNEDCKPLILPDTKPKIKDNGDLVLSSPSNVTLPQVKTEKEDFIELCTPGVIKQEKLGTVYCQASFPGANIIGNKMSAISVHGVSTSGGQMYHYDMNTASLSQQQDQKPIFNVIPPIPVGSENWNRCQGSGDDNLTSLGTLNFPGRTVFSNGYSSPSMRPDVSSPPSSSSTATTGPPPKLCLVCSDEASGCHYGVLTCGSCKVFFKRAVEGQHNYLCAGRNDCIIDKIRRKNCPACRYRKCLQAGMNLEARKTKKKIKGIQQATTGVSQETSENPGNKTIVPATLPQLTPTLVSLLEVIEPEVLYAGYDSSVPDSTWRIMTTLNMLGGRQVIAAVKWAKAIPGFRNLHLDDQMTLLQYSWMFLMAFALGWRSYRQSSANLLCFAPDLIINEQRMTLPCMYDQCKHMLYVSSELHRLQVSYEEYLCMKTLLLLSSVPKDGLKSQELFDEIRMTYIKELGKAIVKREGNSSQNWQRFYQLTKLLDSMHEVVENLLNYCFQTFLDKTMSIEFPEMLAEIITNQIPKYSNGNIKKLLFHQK
T5 sequence (P11473 whole entry): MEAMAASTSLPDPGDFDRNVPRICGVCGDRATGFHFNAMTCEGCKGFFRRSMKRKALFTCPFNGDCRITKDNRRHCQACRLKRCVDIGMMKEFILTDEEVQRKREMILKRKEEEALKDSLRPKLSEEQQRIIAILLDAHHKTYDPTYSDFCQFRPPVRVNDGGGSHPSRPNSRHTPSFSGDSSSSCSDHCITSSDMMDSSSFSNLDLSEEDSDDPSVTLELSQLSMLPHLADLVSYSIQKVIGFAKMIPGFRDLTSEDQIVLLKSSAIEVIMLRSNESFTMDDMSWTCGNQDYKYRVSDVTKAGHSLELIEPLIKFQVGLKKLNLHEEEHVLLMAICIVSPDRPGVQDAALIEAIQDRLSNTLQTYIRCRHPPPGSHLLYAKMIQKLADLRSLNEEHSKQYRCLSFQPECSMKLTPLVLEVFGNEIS
Chain of Androgen receptor, AR (h) (P10275 whole entry): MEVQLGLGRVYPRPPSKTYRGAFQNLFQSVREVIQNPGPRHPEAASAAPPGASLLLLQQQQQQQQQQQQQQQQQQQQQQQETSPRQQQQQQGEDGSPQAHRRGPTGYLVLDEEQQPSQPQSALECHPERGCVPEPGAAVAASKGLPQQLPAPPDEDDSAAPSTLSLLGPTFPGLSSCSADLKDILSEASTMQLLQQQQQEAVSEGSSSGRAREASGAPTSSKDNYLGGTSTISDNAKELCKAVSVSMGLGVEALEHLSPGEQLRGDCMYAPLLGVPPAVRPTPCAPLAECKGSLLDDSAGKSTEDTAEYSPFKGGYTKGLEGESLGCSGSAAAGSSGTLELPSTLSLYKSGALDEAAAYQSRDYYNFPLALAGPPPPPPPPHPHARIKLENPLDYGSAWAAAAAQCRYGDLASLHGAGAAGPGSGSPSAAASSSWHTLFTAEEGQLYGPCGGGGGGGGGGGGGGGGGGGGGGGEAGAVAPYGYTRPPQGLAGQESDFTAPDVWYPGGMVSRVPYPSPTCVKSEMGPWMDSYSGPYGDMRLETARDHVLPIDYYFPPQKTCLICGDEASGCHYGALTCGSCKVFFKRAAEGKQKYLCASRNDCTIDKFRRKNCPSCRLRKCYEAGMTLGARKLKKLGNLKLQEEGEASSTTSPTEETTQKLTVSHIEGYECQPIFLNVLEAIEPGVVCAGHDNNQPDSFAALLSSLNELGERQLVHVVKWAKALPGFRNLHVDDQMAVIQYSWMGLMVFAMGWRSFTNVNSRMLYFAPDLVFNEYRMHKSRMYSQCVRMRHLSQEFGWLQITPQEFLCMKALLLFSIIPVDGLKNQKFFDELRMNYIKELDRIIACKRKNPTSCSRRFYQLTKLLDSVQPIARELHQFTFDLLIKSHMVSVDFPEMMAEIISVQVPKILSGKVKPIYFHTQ

A word on the Km: it is the substrate concentration at which the rate is half of its maximum. As a reminder, the Aqueous Solubility is the concentration that dissolves in the medium under given conditions. Usually NOAEL stands for the highest dose or exposure tested at which no adverse effect was seen. As to `CCOP(=S)(OCC)Oc1nc(Cl)c(Cl)cc1Cl` [Chlorpyrifos, O,O-Diethyl O-(3,5,6-trichloropyridin-2-yl) phosphorothioate], in series [1], the “Intrinsic Liver Clearance” value is on record as 131.95 L/h. Also, the “IPP screening %, Coactivator recruitment” value in series [2] is recorded as -5.1%. Also, the figures for the Specific binding in series [3] and in series [7] were 29.4% and 5.8%, respectively. For the same molecule, the “Vmax CYP2C19 (TCP)” value in series [4] is on record as 2296 uL/min/mol CYP. Besides, the Michaelis-Menten constant (Km) is 1.09 µM in series [4] (read-out: km CYP2C19 (TCP)) and 0.12 µM in series [8] (read-out: km CYP2B6 (CPFO)). For the same molecule, the “Aqueous Solubility” value is 1.26 µg/mL in series [5] (PBK level L2, ref [1],[4],[5],[10],[11],[17],[26]) and 1.26 µg/mL in series [5] (PBK level L3, ref [4],[5],[10],[11]). The NOAEL in series [6] is recorded as 0.1 mg/kg bw/day. Besides, in series [8], the “Vmax CYP2B6 (CPFO)” value is listed as 418 uL/min/nmol CYP. In addition, in [9], the oral reference dose is 0.01 mg/kg bw/day.
Take `CC(C)(C)c1ccc(CCOc2ncnc3ccccc23)cc1` [Fenazaquin, 4-[2-(4-tert-Butylphenyl)ethoxy]quinazoline]: in [10], the “IPP screening %, Specific binding” value came out at 35.0%.
With `CC1(C)O[C@@H]2[C@@H](CO[C@@]3(COS(N)(=O)=O)OC(C)(C)O[C@@H]23)O1` [Topiramate, [(3aS,5aR,8aR,8bS)-2,2,7,7-Tetramethyltetrahydro-2H,3aH,7H-bis[1,3]dioxolo[4,5-b:4',5'-d]pyran-3a-yl]methyl sulfamate (non-preferred name)], the “Intrinsic Liver Clearance” value stood at 15.02 L/h in series [11] (level L2, scaled from [6] internal data (unpublished)) and 0.874 L/h in series [11] (level L3, optimised based on [39]). For the same molecule, in [12], the Fup is given as 79.5%. For the same molecule, in series [13], the “underprediction of the L3 result at L2 (Cmax)” value is listed as not below 5 fold. This molecule also registered a Peff in series [14] of 3.75 cm/s x E-04. For the same molecule, the “IPP screening %, Coactivator recruitment” value in [15] was -2.0%; in [16], -10.0%.
As to “(4S,4aR,5S,5aR,6S,12aS)-4-(Dimethylamino)-3,5,6,10,12,12a-hexahydroxy-6-methyl-1,11-dioxo-1,4,4a,5,5a,6,11,12a-octahydrotetracene-2-carboxamide--hydrogen chloride (1/1) [Oxytetracycline hydrochloride]”, in [17], the “IPP screening %, Coactivator recruitment” value is given as -0.1%.
Turning to “mixture of 2- and 3-tert-butyl-4-methoxyphenol [Butylated Hydroxyanisole]”, the figures for the “IPP screening %, Coactivator recruitment” value in [18], in [19] and in [17] were -0.1%, 3.0% and -0.1%, respectively. Also, the Specific binding in [3] is listed as -0.5%.
